# Literature values, collected in patent US12070523B2, “Sanitization of an article using in situ electrolysis” (APPLIED BIOCIDE GMBH, priority 2022, dated 2024).
smiles,measurement,setting,value
[O-][Cl+2]([O-])O [chlorate],ADI (allowable daily intake),as ClO3^−,0.0024 mg/kg BW·day
same,"Maximum residue level (MRL), smallest MRL used as worst-case","chronic exposure, Commission Regulation (EU) 2020/749",0.05 mg/kg BW·day
